Results taken from US12252714B2, “Halogenation of complex organic compounds” (REGENTS OF THE UNIVERSITY OF MICHIGAN, priority 2018, dated 2025).

How the values were obtained:
MalA′ = assay: Co-crystallization with MalA′; assay type: binding, Malbranchea graminicola
Experimental: Crystallization conditions. […] The purified MalA′ was dialyzed overnight into a 20 mM HEPES pH 7 buffer with 200 mM NaCl or 300 mM NaCl to remove glycerol, and then supplemented with an equimolar quantity of FAD. […] For active site complexes with compounds 2, 3, and 4, MalA′ was pre-incubated with a four-fold molar excess of substrate. Crystals were grown by vapor diffusion from 1:2 mixtures of 5 mg/mL MalA′ pre-incubated with compound 2, 3 or 4 and a well solution containing 2 M (NH4)2SO4, 0.2 M Li2SO4, 5 mM CdCl2, and 0.1 M Bis-Tris pH 5.5. Crystals were cryoprotected in well solution augmented with 10% glycerol and flash-cooled in liquid nitrogen.

MalA = target: T1, MalA (Malbranchea aurantiaca, UniProt L0E155); assay: Michaelis-Menten kinetics of MalA chlorination reactions; assay type: biochemical
T1 construct: The malA coding region was amplified from the cDNA template by PCR; made in house; host or cells: E. coli BL21 (DE3) with pGro7 (GroEL/GroES) chaperone plasmid
Experimental: Substrates malbrancheamide B (compound 3) and isomalbrancheamide B (compound 4) to product malbrancheamide (compound 1). Reactions were set up in a total volume of 250 μL with the following components: 1.1 μM MalA, 44 μM HpaC flavin reductase, 100 μM FAD, 50 mM NaCl, 3.6 mM NADH, and a variety of substrate concentrations ranging from 1 μM to 60 μM. Reactions were quenched with methanol by removing 50 μL at each time point (2, 5, 10, 15 minutes). Reactions were analyzed on a Schimadzu HPLC with the following LC time program: 40% acetonitrile for 1 minute, gradient over 6 minutes from 40-85% acetonitrile, 85% acetonitrile for 1 minute, gradient over 1 minute to 40% acetonitrile, re-equilibration to 40% acetonitrile for 3 minutes. The absorbance was measured at 240 nm and the mobile phase consisted of water and acetonitrile. A Phenomenex Lux cellulose-3, cellulose Tris (4-methylbenzoate) 250×4.6 mm column was used for separation. GraphPad Prism (Version 6.01) software was used to plot the initial velocities against the substrate concentration and to determine the kinetic constants kcat and Km.
Substrate premalbrancheamide (compound 2) to products isomalbrancheamide B (compound 4) and malbrancheamide B (compound 3). Reactions were set up in a total volume of 250 μL with the following components: 1.8 μM MalA, 44 μM HpaC, 100 μM FAD, 50 mM NaCl, 3.6 mM NADH, and a variety of substrate concentrations ranging from 5 μM to 80 μM. Reactions were quenched with 100 μL methanol by removing 50 μL at each time point (2, 5, 7, 10 minutes). Reactions were analyzed on a Schimadzu HPLC with the following LC time program: 34% acetonitrile for 1 minute, gradient over 11 minutes to 62% acetonitrile, 62% acetonitrile for 30 seconds, gradient over 30 seconds to 34% acetonitrile, re-equilibration to 34% for 3 minutes. The absorbance was measured at 240 nm and the mobile phase consisted of water and acetonitrile. A Phenomenex Lux cellulose-3 Tris (4-methylbenzoate) 250×4.6 mm column was used for separation.
Michaelis-Menten kinetic parameters were determined for the natural chlorination reactions of MalA. […] These catalytic efficiencies are fairly high compared to those of the eukaryotic FDH Rdc2, which are 2.93 min−1 mM−1 for the initial chlorination reaction and 0.11 min−1 mM−1 for the second chlorination reaction.^4

[1] = chlorination, compound 2 to compound 3
[2] = chlorination, compound 2 to compound 4
[3] = second chlorination, to compound 1

T1 sequence (L0E155 whole entry): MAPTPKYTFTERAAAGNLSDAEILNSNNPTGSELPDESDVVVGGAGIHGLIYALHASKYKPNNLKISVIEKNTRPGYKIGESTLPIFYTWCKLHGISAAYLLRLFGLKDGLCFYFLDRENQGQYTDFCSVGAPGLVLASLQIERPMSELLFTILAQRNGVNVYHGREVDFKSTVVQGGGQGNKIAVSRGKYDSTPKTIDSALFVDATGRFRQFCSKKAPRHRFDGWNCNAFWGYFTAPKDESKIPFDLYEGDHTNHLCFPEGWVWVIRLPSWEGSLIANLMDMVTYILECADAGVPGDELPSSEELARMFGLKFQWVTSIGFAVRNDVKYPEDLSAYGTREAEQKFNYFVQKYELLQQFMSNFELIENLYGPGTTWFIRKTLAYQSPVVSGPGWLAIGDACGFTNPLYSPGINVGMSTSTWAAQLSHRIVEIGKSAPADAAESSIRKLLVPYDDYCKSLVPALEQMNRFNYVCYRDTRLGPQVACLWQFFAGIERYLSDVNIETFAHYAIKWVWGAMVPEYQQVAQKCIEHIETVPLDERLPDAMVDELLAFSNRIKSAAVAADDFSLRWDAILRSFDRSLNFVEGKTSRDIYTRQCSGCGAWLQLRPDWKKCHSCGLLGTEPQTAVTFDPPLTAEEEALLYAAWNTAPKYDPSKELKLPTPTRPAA

CC1(C)c2[nH]c3cc(Cl)c(Cl)cc3c2C[C@@]23CN4CCC[C@]4(C[C@@H]12)C(=O)N3 [compound 1, malbrancheamide]
binding in MalA′ crystals (MalA′): did not bind in crystals

CC1(C)c2[nH]c3ccccc3c2CC23CN4CCCC4(CC21)C(=O)N3 (stereo not drawn) [compound 2, premalbrancheamide]
Km (MalA; [1]): 7 µM | kcat (MalA; [1]): 0.0013 s⁻¹ | Km (MalA; [2]): 7.5 µM | kcat (MalA; [2]): 0.0015 s⁻¹

CC1(C)c2[nH]c3cc(Cl)ccc3c2C[C@@]23CN4CCC[C@]4(C[C@@H]12)C(=O)N3 [compound 3, malbrancheamide B]
Km (MalA; [3]): 4.4 µM | kcat (MalA; [3]): 0.002 s⁻¹

CC1(C)c2[nH]c3ccc(Cl)cc3c2C[C@@]23CN4CCC[C@]4(C[C@@H]12)C(=O)N3 [compound 4, isomalbrancheamide B]
Km (MalA; [3]): 4 µM | kcat (MalA; [3]): 0.002 s⁻¹
